Measurements reported in patent US20250270227A1, “CAMPTOTHECIN DERIVATIVE, AND PHARMACEUTICAL COMPOSITION AND USE THEREOF” (SIMCERE ZAIMING PHARMACEUTICAL CO., LTD., priority 2021, published 2025).
Like-named read-outs stand apart in the source and are kept apart here.

Experiments:
CYP3A4 = CYP3A4 (Homo sapiens (Human), UniProt P08684); experiment: Inhibitory effect on CYP enzymatic activity in human liver microsomes; format: in vitro ADME
Description: (§1) The inhibition of CYP2C9, CYP2D6 and CYP3A4 enzymatic activities by the compounds of the present disclosure was determined by the following experimental method.
(§2) • 1. Human liver microsomes (Corning 452117) • 2. NADPH (Solarbio 705Y021) • 3. Positive substrates diclofenac (Sigma SLBV3438), dextromethorphan (TRC 3-EDO-175-1) and midazolam (Cerilliant FE01161704) • 4. Positive inhibitors sulfaphenazole (D. Ehrenstorfer GmbH 109012), quinidine (TCI WEODL-RE) and ketoconazole (Sigma 100M1091V) • 5. AB Sciex Triple Quad 5500 liquid chromatography-mass spectrometry
(§3) • 1. Preparation of 100 mM phosphate buffered saline (PBS): 7.098 g of Na2HPO4 was weighed, 500 mL of pure water was added and subjected to ultrasonic dissolution to obtain solution A. 3.400 g of KH2PO4 was weighed, 250 mL of pure water was added and subjected to ultrasonic dissolution to obtain solution B. Solution A was placed on a stirrer and solution B was slowly added until the pH value reached 7.4 to prepare 100 mM PBS buffer. • 2. Preparation of 10 mM NADPH solution with 100 mM PBS buffer. The 10 mM stock solution of the compound of the present disclosure was diluted with DMSO to obtain a 200× concentration of compound working solution (6000, 2000, 600, 200, 60, 20, 0 μM). The stock solution of positive inhibitors was diluted with DMSO to obtain a 200× concentration of positive inhibitor working solution (sulfaphenazole, 1000, 300, 100, 30, 10, 3, 0 μM; quinidine/ketoconazole, 100, 30, 10, 3, 1, 0.3, 0 μM). A 200× concentration of substrate working solution (120 μM diclofenac, 400 μM dextromethorphan, and 200 μM midazolam) was prepared with water, acetonitrile, or acetonitrile/methanol. • 3. 2 μL of 20 mg/ml liver microsome solution, 1 μL of substrate working solution, 1 μL of compound working solution and 176 μL of PBS buffer were taken, mixed uniformly, and pre-incubated in a 37° C. water bath for 15 min. To the positive control group was added 1 μL of sulfaphenazole, quinidine or ketoconazole working solution instead of compound working solution. A 10 mM NADPH solution was also pre-incubated in the 37° C. water bath for 15 min. After 15 min, 20 μL of NADPH was taken and added to each well to initiate the reaction, and the reaction was incubated at 37° C. for 5 min (CYP2C9), 20 min (CYP2D6) or 5 min (CYP3A4). Double samples were set for all incubation samples. After the corresponding time of incubation, 400 μL of glacial methanol containing internal standard was added to all samples to stop the reaction. The mixture was mixed uniformly by vortex and centrifuged at 3220 g for 40 min at 4° C. After the completion of the centrifugation, 100 μL of the supernatant was transferred to a loading plate, and 100 μL of ultrapure water was added and mixed uniformly for LC-MS/MS analysis.
(§4) The reduction in metabolite production in the administration group compared to the control group was compared by the ratio of sample peak area to internal standard peak area, and IC50 value was calculated by Excel XLfit 5.3.1.3.
(§5) The percent remaining activity was calculated by the following equation: […]

CYP2C9 = CYP2C9 (Homo sapiens (Human), UniProt P11712); experiment: as above; format: in vitro ADME
Sequence of CYP2C9 (P11712 whole entry): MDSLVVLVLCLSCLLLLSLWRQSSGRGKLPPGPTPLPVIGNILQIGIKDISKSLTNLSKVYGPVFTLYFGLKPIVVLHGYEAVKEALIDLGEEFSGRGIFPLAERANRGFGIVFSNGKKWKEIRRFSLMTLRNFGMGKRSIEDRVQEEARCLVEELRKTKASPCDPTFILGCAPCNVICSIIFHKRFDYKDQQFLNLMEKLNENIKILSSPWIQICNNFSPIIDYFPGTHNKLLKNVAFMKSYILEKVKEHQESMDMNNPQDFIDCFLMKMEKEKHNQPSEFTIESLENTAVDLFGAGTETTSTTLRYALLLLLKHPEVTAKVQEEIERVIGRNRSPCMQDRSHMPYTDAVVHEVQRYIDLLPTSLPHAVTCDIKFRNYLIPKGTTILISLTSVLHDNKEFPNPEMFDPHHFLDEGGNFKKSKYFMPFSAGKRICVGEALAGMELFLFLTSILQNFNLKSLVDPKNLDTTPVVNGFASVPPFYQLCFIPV
Description: as §1, §2, §3, §4, §5

CYP2D6 = CYP2D6 (Homo sapiens (Human), UniProt P10635); experiment: as above; format: in vitro ADME
Sequence of CYP2D6 (P10635 whole entry): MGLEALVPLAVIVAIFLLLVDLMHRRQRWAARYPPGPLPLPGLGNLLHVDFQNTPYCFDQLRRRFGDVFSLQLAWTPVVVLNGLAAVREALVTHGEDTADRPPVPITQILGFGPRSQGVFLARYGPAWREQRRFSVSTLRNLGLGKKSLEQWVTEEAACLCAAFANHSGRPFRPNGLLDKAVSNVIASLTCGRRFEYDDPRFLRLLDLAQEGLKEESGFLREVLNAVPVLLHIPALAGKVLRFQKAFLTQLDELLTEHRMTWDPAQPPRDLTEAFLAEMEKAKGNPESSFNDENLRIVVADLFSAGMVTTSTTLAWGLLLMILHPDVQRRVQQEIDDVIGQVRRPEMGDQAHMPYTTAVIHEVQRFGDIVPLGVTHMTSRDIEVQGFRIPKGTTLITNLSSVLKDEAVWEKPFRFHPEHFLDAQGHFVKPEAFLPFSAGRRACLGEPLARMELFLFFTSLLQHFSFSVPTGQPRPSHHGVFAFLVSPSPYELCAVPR
Description: as §1, §2, §3, §4, §5

[1] = Plasma protein binding rate (equilibrium dialysis); format: in vitro ADME, mouse; settings: pH 7.4
Description: The protein binding rates of the compounds of the present disclosure in human and mouse plasma were determined by the following experimental method.
• 1. Human plasma (BioIVT), CD-1 mouse plasma (BiolVT) • 2. Na2HPO4 (Sigma S5136-500G) • 3. NaH2PO4 (Sigma 53139-500G) • 4. NaCl (Sigma S5886-IKG) • 5. 96-well equilibrium dialysis plate (HTDialysis LLC, Gales Ferry, CT, HTD96B) and equilibrium dialysis membrane (MWCO 12-14K, 1101) • 6. Positive control compound warfarin • 7. ABI QTrap 5500 liquid chromatography-mass spectrometry
• 1. Preparation of a buffer with a concentration of 100 mM sodium phosphate and 150 mM NaCl: An alkaline solution with a concentration of 14.2 g/L Na2HPO4 and 8.77 g/L NaCl was prepared with ultrapure water, and an acidic solution with a concentration of 12.0 g/L NaH2PO4 and 8.77 g/L NaCl was prepared with ultrapure water. Then the alkaline solution was titrated to pH 7.4 with the acidic solution to prepare a buffer with a concentration of 100 mM sodium phosphate and 150 mM NaCl. • 2. Preparation of dialysis membrane: The dialysis membrane was soaked in ultrapure water for 60 min to separate the membrane into two pieces, then soaked in 20% ethanol for 20 min, and finally soaked in a buffer used for dialysis for 20 min. • 3. Preparation of plasma: The frozen plasma was quickly thawed at room temperature, and then centrifuged at 3220 g for 10 min at 4° C. to remove clots, and the supernatant was collected into a new centrifugal tube. The pH of the plasma was determined and recorded, and the plasma with pH of 7-8 was used. • 4. Preparation of compound-containing plasma samples: The 10 mM stock solution of the compound of the present invention or the positive control compound was diluted with DMSO to obtain a 200 μM working solution. To 597 μl of human or mouse plasma was added 3 μl of 200 μM compound working solution to obtain a plasma sample with a final concentration of 1 μM. • 5. […]
The peak areas of the compound on the buffer side and the plasma side were determined. […]

[2] = CD-1 mouse plasma, 1 μM, equilibrium dialysis 6 h, 37° C., read-out: % Mouse plasma protein binding rate (converted)

Sequence of CYP3A4 (P08684 whole entry): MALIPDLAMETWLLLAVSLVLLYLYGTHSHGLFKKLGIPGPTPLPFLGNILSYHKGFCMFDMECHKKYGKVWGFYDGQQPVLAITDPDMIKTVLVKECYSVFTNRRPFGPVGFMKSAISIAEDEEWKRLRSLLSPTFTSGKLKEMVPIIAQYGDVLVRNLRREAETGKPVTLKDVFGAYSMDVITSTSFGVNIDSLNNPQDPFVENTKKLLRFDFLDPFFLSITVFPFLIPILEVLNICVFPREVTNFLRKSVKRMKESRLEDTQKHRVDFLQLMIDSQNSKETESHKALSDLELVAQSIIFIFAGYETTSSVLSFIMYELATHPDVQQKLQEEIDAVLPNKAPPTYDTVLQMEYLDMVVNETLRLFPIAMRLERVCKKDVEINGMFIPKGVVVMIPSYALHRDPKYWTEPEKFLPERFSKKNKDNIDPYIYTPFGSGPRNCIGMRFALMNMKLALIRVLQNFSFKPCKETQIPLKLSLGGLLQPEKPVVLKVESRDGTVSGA

Row | SMILES | IC50 (CYP3A4) [µM] | IC50 (CYP2C9) [µM] | IC50 (CYP2D6; read-out: Inhibition on CYP2D6 IC50, human liver microsomes, substrate dextromethorphan) [µM] | fraction unbound at 6 h, 1 μM [1, 2] | IC50 (CYP3A4; read-out: Inhibition on CYP3A4 IC50, human liver microsomes, substrate midazolam) [µM] | IC50 (CYP2C9; read-out: Inhibition on CYP2C9 IC50, human liver microsomes, substrate diclofenac) [µM] | IC50 (CYP2D6) [µM] | fraction unbound at 6 h, 1 μM ([1]; CD-1, mouse, plasma)
1 | CC[C@@]1(O)C(=O)OCc2c1cc1n(c2=O)Cc2c-1nc1cc3c(cc1c2CNC(=O)C(O)C1CC1)OCO3 (single isomer, unassigned) [Compound 14-P1] | > 50 | > 50 | > 50 | 0.363 | – | – | – | –
2 | CC[C@@]1(O)C(=O)OCc2c1cc1n(c2=O)Cc2c-1nc1cc3c(cc1c2CNC(=O)C(O)C1CC1)OCO3 (single isomer, unassigned) [Compound 14-P2] | – | – | – | – | > 50 | > 50 | > 50 | –
3 | CC[C@@]1(O)C(=O)OCc2c1cc1n(c2=O)Cc2c-1nc1cc3c(c(F)c1c2CNC(=O)[C@@H](O)C1CC1)OCO3 (single isomer, unassigned) [Compound 37-P1] | > 50 | > 50 | – | – | – | – | > 50 | 0.327
4 | [2H]C1([2H])Oc2cc3nc4c(c(CNC(=O)C(O)C5CC5)c3cc2O1)Cn1c-4cc2c(c1=O)COC(=O)[C@]2(O)CC (stereo partly drawn) [Compound 39, 2-cyclopropyl-N-(((S)-7-ethyl-7-hydroxy-8,11-dioxo-7,8,11,13-tetrahydro-10H-[1,3]dioxolo[4,5-g]pyrano[3′,4′:6,7]indolizino[1,2-b]quinolin-14-yl-2,2-d2)methyl)-2-hydroxyacetamide] | > 50 | > 50 | – | 0.342 | – | – | > 50 | –
